Test system: Plasmodium berghei
Assay: Luciferase/luciferin-expressing antifolate-resistant parasites were used to infect a culture of HepG2 cells that were pre-incubated with compounds. Infected hepatocytes emit light due to the luciferase reaction. Assay results are presented as the percent inhibition of light emission compared to control. […]
Type: functional
Settings: sporozoite; for IC90: read-out: LUCIFERASE INFECTION ASSAY - IC90
[1] = read-out: LUCIFERASE INFECTION ASSAY - IC50

SMILES | IC90 | IC50 [1] | other results
CNc1nc2cnc(Nc3cccc(Cl)c3)cc2n1-c1cc(OC)c(OC)c(OC)c1 | 4.49 µM |  | IC50 (PBLUC_HILL_SLOPE 3.01, PBLUC_R_SQUARED 0.505, read-out: LUCIFERASE INFECTION ASSAY - IC50): 2.17 µM
COc1ccccc1-c1cc(-c2cccc(OC(F)(F)F)c2)cnc1N | > 9.16 µM | > 9.16 µM | 
CC(C)(C)c1ccc(C(=O)Nc2nnc(Sc3ccc([N+](=O)[O-])cc3C#N)s2)cc1 | 4.98 µM |  | IC50 (PBLUC_HILL_SLOPE 0.682, PBLUC_R_SQUARED 0.567, read-out: LUCIFERASE INFECTION ASSAY - IC50): 0.198 µM
CC(=O)NCCCc1ccc(C(=O)COC(=O)c2cc(Cl)c[nH]2)cc1 | > 10 µM |  | IC50 (FFLUC_HILL_SLOPE 2.83, FFLUC_R_SQUARED 0.674, read-out: LUCIFERASE INFECTION ASSAY - IC50): > 10 µM
COc1ccc(CNC(=O)/C=C/c2csc(N(C(C)=O)c3cccc(C(F)(F)F)c3)n2)cc1 | > 10 µM | > 10 µM | 
COc1ccccc1NS(=O)(=O)c1ccc2nc(-c3ccncc3)[nH]c2c1 | > 10 µM | > 10 µM | 
CC(C)c1cccc(NS(=O)(=O)c2c[nH]c(C(=O)N3CCCC3)c2)c1 | > 10 µM |  | IC50 (HEPG2TOX_HILL_SLOPE 1.65, HEPG2TOX_R_SQUARED 0.259, read-out: LUCIFERASE INFECTION ASSAY - IC50): > 10 µM
CNS(=O)(=O)Cc1ccccc1CNCc1ccc(OC(F)F)cc1 | > 10 µM | > 10 µM | 
O=C(NC1CCCc2ccccc21)c1ccc2c(c1)S(=O)(=O)c1ccccc1C2=O (stereo not drawn) | > 10 µM |  | IC50 (HEPG2TOX_HILL_SLOPE 1, HEPG2TOX_R_SQUARED 0.0756, read-out: LUCIFERASE INFECTION ASSAY - IC50): > 10 µM
CS(=O)(=O)c1ccc(Nc2cc3[nH]c(-c4cccc(C(F)(F)F)c4)cc3cn2)cc1 | 9.79 µM |  | IC50 (PBLUC_HILL_SLOPE 3.36, PBLUC_R_SQUARED 0.528, read-out: LUCIFERASE INFECTION ASSAY - IC50): 5.09 µM
O=C(N/N=C/C1=C(N2CCOCC2)C(=C/c2ccc(Cl)cc2Cl)/CC1)c1ccco1 | 6.76 µM |  | IC50 (PBLUC_HILL_SLOPE 1.95, PBLUC_R_SQUARED 0.652, read-out: LUCIFERASE INFECTION ASSAY - IC50): 2.18 µM
O=C1Nc2cc(Cl)ccc2/C1=C\c1nn(Cc2ccccc2)cc1-c1cccnc1 | > 10 µM |  | IC50 (FFLUC_HILL_SLOPE 16.7, FFLUC_R_SQUARED 0.641, read-out: LUCIFERASE INFECTION ASSAY - IC50): > 10 µM
CC(NC(=O)Cn1c2ccccc2c(=O)c2ccccc21)c1cc2ccccc2o1 (stereo not drawn) | > 10 µM | 6.06 µM | 
COc1ccc(-c2cnc3cnc(-c4ccccc4N(C)C)cn23)cc1 | 0.409 µM |  | IC50 (HEPG2TOX_HILL_SLOPE 0.622, HEPG2TOX_R_SQUARED 0.863, PBLUC_HILL_SLOPE 8.14, PBLUC_R_SQUARED 0.832, read-out: LUCIFERASE INFECTION ASSAY - IC50): 0.312 µM
CS(=O)(=O)c1ccc(CN2CCN3C(C(=O)Nc4cccc(C(F)(F)F)c4)=COC3=NC2=O)cc1 | > 10 µM | > 10 µM | 
Cc1cc(C2=NNC(=NC(C)(C)C)SC2)c(C)n1-c1ccccc1 | > 10 µM |  | IC50 (FFLUC_HILL_SLOPE 3.44, FFLUC_R_SQUARED 0.101, read-out: LUCIFERASE INFECTION ASSAY - IC50): > 10 µM
CCn1c(NC(=O)c2cccnc2Oc2ccccc2)nc2ccccc21 | > 10 µM | > 10 µM | 
CCOc1ccc(/C=C2\CCCC3C2=NN(C(=O)C2(S(=O)(=O)c4ccccc4)CC2)C3c2ccc(OCC)cc2)cc1 (stereo not drawn) | > 10 µM | 5.63 µM | 
c1ccc2[nH]c(CN3CCN(Cc4csc5ccccc45)CC3)nc2c1 | > 10 µM |  | IC50 (PBLUC_HILL_SLOPE 5.23, 12.9, PBLUC_R_SQUARED 0.488, 0.411, read-out: LUCIFERASE INFECTION ASSAY - IC50): 9.2 µM
CSc1c(C#N)c(-c2cc(C(C)(C)C)oc2C)nn1-c1ccc(I)cc1 | > 6.91 µM |  | IC50 (FFLUC_HILL_SLOPE 0.81, FFLUC_R_SQUARED 0.431, read-out: LUCIFERASE INFECTION ASSAY - IC50): > 6.91 µM
CCCCNC1=C(NS(=O)(=O)c2ccc(NC(C)=O)cc2)C(=O)c2ccccc2C1=O | > 10 µM |  | IC50 (PBLUC_HILL_SLOPE 2.17, PBLUC_R_SQUARED 0.634, read-out: LUCIFERASE INFECTION ASSAY - IC50): 3.66 µM
COc1ccc2cc(C(C)C(=O)N/N=C/c3ccccc3O)ccc2c1 (stereo not drawn) | > 9.47 µM |  | IC50 (HEPG2TOX_HILL_SLOPE 3.47, HEPG2TOX_R_SQUARED 0.909, PBLUC_HILL_SLOPE 4.89, PBLUC_R_SQUARED 0.506, read-out: LUCIFERASE INFECTION ASSAY - IC50): 6.69 µM

SMILES | IC90 | IC50 [1] | other results
CC(C)C(Nc1ccc(S(=O)(=O)N2CCOCC2)cc1[N+](=O)[O-])c1nc2ccccc2[nH]1 (stereo not drawn) | > 10 µM | 9.46 µM | 
Cc1cccc(CNc2nc3cnc(-c4cccc(Oc5ccccc5)c4)cc3n2C)c1 | 3.88 µM |  | IC50 (FFLUC_HILL_SLOPE 2.46, FFLUC_R_SQUARED 0.608, HEPG2TOX_HILL_SLOPE 16, HEPG2TOX_R_SQUARED 0.341, PBLUC_HILL_SLOPE 8.58, PBLUC_R_SQUARED 0.684, read-out: LUCIFERASE INFECTION ASSAY - IC50): 3 µM
COc1ccc(-c2ccc3c(c2)COC2(CCN(C(=O)c4cc(F)ccc4C)CC2)O3)cc1OC | > 6.91 µM | > 6.91 µM | 
Cc1ccn2c(=O)cc(CN3C(=O)NC4(CCCc5ccccc54)C3=O)nc2c1 (stereo not drawn) | > 10 µM |  | IC50 (PBLUC_HILL_SLOPE 16.8, PBLUC_R_SQUARED 0.349, read-out: LUCIFERASE INFECTION ASSAY - IC50): 9.44 µM
O=[N+]([O-])c1cnc(Sc2nnc(-c3ccccc3)[nH]2)s1 | > 10.8 µM | > 10.8 µM | 
Cn1c(-c2ccccc2)nc2cnc(Nc3cccc(OC(F)(F)F)c3)cc21 | 2.38 µM |  | IC50 (HEPG2TOX_HILL_SLOPE 2.98, HEPG2TOX_R_SQUARED 0.826, PBLUC_HILL_SLOPE 1.94, PBLUC_R_SQUARED 0.665, read-out: LUCIFERASE INFECTION ASSAY - IC50): 0.764 µM
CC(C)(C)n1ncc(C(=O)NCCOc2ccccc2)c1C(F)(F)F | > 10 µM |  | IC50 (PBLUC_HILL_SLOPE 0.7, PBLUC_R_SQUARED 0.775, read-out: LUCIFERASE INFECTION ASSAY - IC50): 0.591 µM
COc1ccccc1C(=O)Nc1cc(-c2cn3cccnc3n2)ccc1C | > 10 µM |  | IC50 (HEPG2TOX_HILL_SLOPE 18.3, HEPG2TOX_R_SQUARED 0.752, PBLUC_HILL_SLOPE 13.2, PBLUC_R_SQUARED 0.331, read-out: LUCIFERASE INFECTION ASSAY - IC50): 9.08 µM
Cc1nn2c(=O)c(Cc3cccc(Cl)c3)c(C)[nH]c2c1-c1ccccc1 | 2.81 µM |  | IC50 (FFLUC_HILL_SLOPE 22.4, FFLUC_R_SQUARED 0.436, HEPG2TOX_HILL_SLOPE 3.67, HEPG2TOX_R_SQUARED 0.334, PBLUC_HILL_SLOPE 3.2, PBLUC_R_SQUARED 0.748, read-out: LUCIFERASE INFECTION ASSAY - IC50): 1.41 µM
CC(C)CCN(C(=O)CN1c2ccccc2CC1C)c1c(N)n(Cc2ccccc2)c(=O)[nH]c1=O (stereo not drawn) | > 10 µM | > 10 µM | 
C/C(=N\NC(=S)Nc1cccc(C(F)(F)F)c1)c1cc(Cl)ccc1O | > 8.51 µM |  | IC50 (HEPG2TOX_HILL_SLOPE 6.81, HEPG2TOX_R_SQUARED 0.836, PBLUC_HILL_SLOPE 11, PBLUC_R_SQUARED 0.0541, read-out: LUCIFERASE INFECTION ASSAY - IC50): 7.79 µM
N#CC(C#N)=NNc1ccc(F)cc1F | > 16 µM |  | IC50 (HEPG2TOX_HILL_SLOPE 0.862, HEPG2TOX_R_SQUARED 0.0964, read-out: LUCIFERASE INFECTION ASSAY - IC50): > 16 µM
COc1ccc(C(NCC(=O)Nc2sccc2C(N)=O)c2ccccc2)cc1 (stereo not drawn) | > 10 µM |  | IC50 (PBLUC_HILL_SLOPE 3.52, PBLUC_R_SQUARED 0.517, read-out: LUCIFERASE INFECTION ASSAY - IC50): 5.37 µM
Cc1ccc(Cl)cc1NC(=S)N/N=C\c1cccc2ccccc12 | 1.85 µM | 0.805 µM | 
CCOc1ccc(C(=O)CN(C#N)C(=O)c2ccccc2)cc1 | 0.758 µM |  | IC50 (HEPG2TOX_HILL_SLOPE 0.95, HEPG2TOX_R_SQUARED 0.917, PBLUC_HILL_SLOPE 159, PBLUC_R_SQUARED 0.609, read-out: LUCIFERASE INFECTION ASSAY - IC50): 0.747 µM
Oc1c(Br)cc(/C=C/c2nc3cc(Cl)ccc3o2)cc1Br | > 10 µM |  | IC50 (HEPG2TOX_HILL_SLOPE 9.25, HEPG2TOX_R_SQUARED 0.294, read-out: LUCIFERASE INFECTION ASSAY - IC50): > 10 µM
COc1ccc(-c2nc3ccc(NC(=O)Nc4ccc(C)cc4)cn3n2)cc1 | 7.53 µM |  | IC50 (HEPG2TOX_HILL_SLOPE 50, HEPG2TOX_R_SQUARED 0.291, PBLUC_HILL_SLOPE 5.1, PBLUC_R_SQUARED 0.322, read-out: LUCIFERASE INFECTION ASSAY - IC50): 4.9 µM
Cc1c(O)ccc2c(CNc3ccc(C(C)(C)C)cc3)cc(=O)oc12 | > 10 µM |  | IC50 (HEPG2TOX_HILL_SLOPE 0.191, HEPG2TOX_R_SQUARED 0.186, PBLUC_HILL_SLOPE 2.86, PBLUC_R_SQUARED 0.292, read-out: LUCIFERASE INFECTION ASSAY - IC50): 4.84 µM
O=C(Nc1ccc(CNc2ncnc3cc(Cl)ccc23)cc1)C1CC1 | 1.46 µM | 0.544 µM | 
CC(C)n1ncc2c(C(=O)Nc3ccn(C)n3)cc(-c3cccs3)nc21 | > 10 µM | > 10 µM | 
Cc1ccc(Cn2cc(/C=C/C(=O)Nc3ccn(C)n3)c(-c3ccccc3)n2)cc1 | 5.35 µM |  | IC50 (PBLUC_HILL_SLOPE 23.0, 1.63, PBLUC_R_SQUARED 0.221, 0.716, read-out: LUCIFERASE INFECTION ASSAY - IC50): 5.32 µM
CCOC(=O)/C(=N\Nc1cc(C(F)(F)F)ccc1Cl)N1CCN(C(c2ccccc2)c2ccccc2)CC1 | > 10 µM | 4.97 µM | 
